Data reported in ChEMBL document CHEMBL5338773, “First-in-Class Selective Inhibitors of the Lysine Acetyltransferase KAT8” (J Med Chem, 2023).
Active and inactive are the calls of the source. The calls are words filed in the database; no cut-off is given here.

What was measured:
[1] = target: Histone acetyltransferase KAT6A (Homo sapiens) (UniProt Q92794); experiment: Inhibition of recombinant human KAT6A (488 to 778 residues) using histone H3 peptide and [3H]-acetyl-coA as substrates at 200 uM incubated for 1 hrs by liquid scintillation counter analysis
Histone acetyltransferase KAT6A (Homo sapiens), sequence (Q92794 whole entry, looked up, the tested form may be a part): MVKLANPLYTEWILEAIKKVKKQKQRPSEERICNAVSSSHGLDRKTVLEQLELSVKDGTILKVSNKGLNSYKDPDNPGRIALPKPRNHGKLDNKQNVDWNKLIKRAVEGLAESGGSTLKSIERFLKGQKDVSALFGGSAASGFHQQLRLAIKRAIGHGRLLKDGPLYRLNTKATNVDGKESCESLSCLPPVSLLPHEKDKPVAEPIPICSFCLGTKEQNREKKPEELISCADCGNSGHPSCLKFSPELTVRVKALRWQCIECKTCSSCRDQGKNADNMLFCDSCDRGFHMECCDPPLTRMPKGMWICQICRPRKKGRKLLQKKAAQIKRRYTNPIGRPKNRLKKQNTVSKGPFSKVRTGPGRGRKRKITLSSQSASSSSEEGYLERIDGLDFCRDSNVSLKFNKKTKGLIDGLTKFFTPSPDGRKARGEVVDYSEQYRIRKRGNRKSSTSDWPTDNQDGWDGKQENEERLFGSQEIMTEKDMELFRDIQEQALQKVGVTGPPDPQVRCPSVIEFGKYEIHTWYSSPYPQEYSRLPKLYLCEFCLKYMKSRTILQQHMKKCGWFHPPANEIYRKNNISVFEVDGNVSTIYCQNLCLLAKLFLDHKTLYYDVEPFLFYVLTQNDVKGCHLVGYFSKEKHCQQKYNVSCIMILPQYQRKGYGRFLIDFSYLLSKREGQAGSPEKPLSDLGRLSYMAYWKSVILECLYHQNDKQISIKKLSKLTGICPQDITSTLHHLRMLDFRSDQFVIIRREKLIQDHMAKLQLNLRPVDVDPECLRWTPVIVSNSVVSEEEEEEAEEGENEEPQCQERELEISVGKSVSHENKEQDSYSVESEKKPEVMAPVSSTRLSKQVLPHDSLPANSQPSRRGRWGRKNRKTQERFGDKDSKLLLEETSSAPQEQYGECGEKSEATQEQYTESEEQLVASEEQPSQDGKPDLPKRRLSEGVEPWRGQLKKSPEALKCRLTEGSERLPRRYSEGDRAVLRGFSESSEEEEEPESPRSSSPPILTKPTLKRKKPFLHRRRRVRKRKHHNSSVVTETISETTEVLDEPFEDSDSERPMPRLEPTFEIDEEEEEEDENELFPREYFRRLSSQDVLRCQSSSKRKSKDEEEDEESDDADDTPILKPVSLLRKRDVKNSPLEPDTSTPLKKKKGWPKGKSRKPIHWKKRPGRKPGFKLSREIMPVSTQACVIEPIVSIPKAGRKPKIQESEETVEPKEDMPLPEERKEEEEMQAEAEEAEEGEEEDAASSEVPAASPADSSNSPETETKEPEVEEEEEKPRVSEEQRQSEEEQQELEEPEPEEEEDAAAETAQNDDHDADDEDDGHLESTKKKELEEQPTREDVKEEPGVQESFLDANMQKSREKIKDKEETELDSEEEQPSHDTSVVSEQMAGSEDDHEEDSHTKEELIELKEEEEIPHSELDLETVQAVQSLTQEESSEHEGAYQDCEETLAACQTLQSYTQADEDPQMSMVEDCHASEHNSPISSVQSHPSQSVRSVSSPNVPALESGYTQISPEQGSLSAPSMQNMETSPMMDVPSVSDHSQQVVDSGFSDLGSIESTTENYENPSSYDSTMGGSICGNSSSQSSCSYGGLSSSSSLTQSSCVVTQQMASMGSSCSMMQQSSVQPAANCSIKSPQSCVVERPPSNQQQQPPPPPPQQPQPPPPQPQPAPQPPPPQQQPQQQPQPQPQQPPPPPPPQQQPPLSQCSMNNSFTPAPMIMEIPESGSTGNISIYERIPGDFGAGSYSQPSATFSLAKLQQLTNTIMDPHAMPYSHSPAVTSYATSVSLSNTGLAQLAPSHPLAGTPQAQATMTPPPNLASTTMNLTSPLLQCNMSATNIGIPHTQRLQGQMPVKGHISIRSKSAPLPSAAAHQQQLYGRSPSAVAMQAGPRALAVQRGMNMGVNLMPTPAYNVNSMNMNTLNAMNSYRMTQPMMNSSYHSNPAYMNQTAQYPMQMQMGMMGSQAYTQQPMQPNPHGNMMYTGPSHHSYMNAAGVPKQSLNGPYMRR

[2] = target: Histone acetyltransferase KAT7 (Homo sapiens) (UniProt O95251); experiment: Inhibition of recombinant human full length KAT7 using histone H3 peptide and [3H]-acetyl-coA as substrates at 200 uM incubated for 1 hrs by liquid scintillation counter analysis
Histone acetyltransferase KAT7 (Homo sapiens), sequence (O95251 whole entry): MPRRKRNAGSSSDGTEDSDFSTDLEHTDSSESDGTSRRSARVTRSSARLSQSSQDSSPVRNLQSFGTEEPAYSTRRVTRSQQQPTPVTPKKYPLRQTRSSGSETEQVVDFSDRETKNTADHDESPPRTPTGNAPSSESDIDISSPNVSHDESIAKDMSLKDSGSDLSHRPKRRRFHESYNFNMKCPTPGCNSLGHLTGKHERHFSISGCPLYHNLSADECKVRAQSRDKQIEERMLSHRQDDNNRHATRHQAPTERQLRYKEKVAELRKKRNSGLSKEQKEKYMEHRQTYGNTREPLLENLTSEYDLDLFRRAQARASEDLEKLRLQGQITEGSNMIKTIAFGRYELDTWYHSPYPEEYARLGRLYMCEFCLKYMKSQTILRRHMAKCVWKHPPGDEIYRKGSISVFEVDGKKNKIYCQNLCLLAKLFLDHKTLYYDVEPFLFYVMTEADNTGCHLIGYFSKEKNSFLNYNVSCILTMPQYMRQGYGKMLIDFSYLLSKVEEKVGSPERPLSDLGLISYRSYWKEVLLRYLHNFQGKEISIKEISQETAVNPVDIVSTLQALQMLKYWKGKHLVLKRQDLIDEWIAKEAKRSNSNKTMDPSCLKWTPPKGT

[3] = system: HCT-116; experiment: Antiproliferative activity against human HCT-116 cells assessed as cell proliferation inhibition at 100 uM incubated for 72 hrs by MTT assay; assay type: functional; set-up: scale not given: the % may be the effect or the level left
[4] = system: HT-29; experiment: Induction of cell cycle arrest in human HT-29 cells assessed as increase in number of cells at sub-G1 phase with DNA hypodiploid at 100 uM incubated for 72 hrs by PI-staining based flow cytometry (Rvb=2%); assay type: functional
[5] = system: HeLa; experiment: Induction of cell cycle arrest in human HeLa cells assessed as increase in number of cells at sub-G1 phase with DNA hypodiploid at 100 uM incubated for 72 hrs by PI-staining based flow cytometry (Rvb=2%); assay type: functional
[6] = system: HCT-116; experiment: Induction of apoptosis in human HCT-116 cells assessed as slight increase in apoptotic cells at 50 to 100 uM incubated for 72 hrs by Annexin V-FITC staining based flow cytometry; assay type: functional, cell-based; conditions: dose 50-100 µM
[7] = system: HCT-116; experiment: Downregulation of UCP2 mRNA expression in human HCT-116 cells at 100 uM incubated for 48 hrs by qRT-PCR analysis; assay type: functional, cell-based
[8] = target: T1, Histone acetyltransferase KAT8 (Homo sapiens) (UniProt Q9H7Z6); experiment: Inhibition of human KAT8 in human HT-29 cells assessed as decrease in histone H4K16 acetylation level by measuring fluorescence intensity in nucleus at 50 uM incubated for 24 hrs by DAPI staining based immunofluorescence analysis; assay type: cell-based
T1 sequence (whole entry): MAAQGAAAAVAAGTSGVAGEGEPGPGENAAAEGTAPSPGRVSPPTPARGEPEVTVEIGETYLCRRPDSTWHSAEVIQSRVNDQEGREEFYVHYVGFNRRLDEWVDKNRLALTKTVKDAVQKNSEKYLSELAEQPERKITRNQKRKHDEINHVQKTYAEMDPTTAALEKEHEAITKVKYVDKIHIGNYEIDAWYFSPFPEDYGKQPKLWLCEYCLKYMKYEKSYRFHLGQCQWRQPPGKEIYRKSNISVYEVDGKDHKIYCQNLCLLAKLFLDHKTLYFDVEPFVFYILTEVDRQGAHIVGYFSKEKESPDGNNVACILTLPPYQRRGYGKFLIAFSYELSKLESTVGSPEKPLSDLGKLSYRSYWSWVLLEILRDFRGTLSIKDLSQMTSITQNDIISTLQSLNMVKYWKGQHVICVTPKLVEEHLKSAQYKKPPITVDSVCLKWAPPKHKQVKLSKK

[9] = system: HCT-116; experiment: Downregulation of HOXA9A mRNA expression in human HCT-116 cells at 100 uM incubated for 48 hrs by qRT-PCR analysis; assay type: functional, cell-based
[10] = system: HeLa; experiment: Induction of autophagy in human HeLa cells stably expressing EGFP-LC3 assessed as change in LC3-II/LC3-I ratio at 10 to 100 uM incubated for 48 hrs by Western blot analysis; assay type: functional, cell-based; conditions: dose 10-100 µM
[11] = system: HeLa; experiment: Induction of autophagy in human HeLa cells stably expressing EGFP-LC3 assessed as increase in p62 expression level at 10 to 100 uM incubated for 48 hrs by Western blot analysis; assay type: functional, cell-based; conditions: dose 10-100 µM

Row | inhibition [1] | inhibition [2] | inhibition [8] | SMILES | Activity [3] | Activity [4] | Activity [5] | Activity [6] | Activity [7] | Activity [9] | Activity [10] | Activity [11]
1 | inactive | inactive | – | CC1=NN(c2ccc(C(=O)O)cc2)C(=O)/C1=C\c1ccc[nH]1 | >80% | 15% | 5% | Active | Active | – | – | –
2 | – | – | > 50% | O=C(O)c1ccc(N2N=C(c3ccccc3)/C(=C/c3ccc[nH]3)C2=O)cc1 | – | 14% | 4% | Active | Active | Active | Active | Active
